How the values were obtained:
Type in all cases: in vivo
[1] = test system: green foxtail (Setaria viridis); assay: Test A postemergence application, visual injury rating 0-100; details: 10 days
Procedure, shortened: (§1)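 Plants in a loam and sand soil blend were treated with each test chemical, in a non-phytotoxic solvent system including surfactant, either sprayed on seeded soil before emergence or applied after emergence at the one- to two-leaf stage. Ten days later in the greenhouse, plants were compared with untreated controls and visually rated from 0 (no effect) to 100 (complete control).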

[2] = test system: barnyardgrass (Echinochloa crus-galli); assay: as above; details: 10 days
Procedure, shortened: as §1

[3] = test system: oat, wild (wild oat, Avena fatua); assay: as above; details: 10 days
Procedure, shortened: as §1

[4] = test system: horseweed (Erigeron canadensis); assay: as above; details: 10 days
Procedure, shortened: as §1

[5] = test system: wheat (Triticum aestivum); assay: as above; details: 10 days
Procedure, shortened: as §1

[6] = test system: ryegrass, Italian (italian ryegrass, Lolium multiflorum); assay: as above; details: 10 days
Procedure, shortened: as §1

[7] = test system: ragweed (common ragweed, Ambrosia artemisiifolia); assay: as above; details: 10 days
Procedure, shortened: as §1

[8] = test system: corn (Zea mays); assay: as above; details: 10 days
Procedure, shortened: as §1

[9] = test system: soybean (Glycine max); assay: as above; details: 10 days
Procedure, shortened: as §1

[10] = test system: galium (catchweed bedstraw, Galium aparine); assay: as above; details: 10 days
Procedure, shortened: as §1

[11] = test system: kochia (Bassia scoparia); assay: as above; details: 10 days
Procedure, shortened: as §1

[12] = test system: blackgrass (Alopecurus myosuroides); assay: as above; details: 10 days
Procedure, shortened: as §1

[13] = test system: palmer (palmer amaranth, palmer pigweed, Amaranthus palmeri); assay: as above; details: 10 days
Procedure, shortened: as §1

[14] = test system: rice (Oryza sativa); assay: Test B flooded paddy test, visual plant response rating 0-100; details: 250 g ai/ha, Flood, applied to paddy water, evaluated after 13 days
Procedure, shortened: (§2)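 Treatment occurs at the 2-leaf stage by adding compound to floodwater standing 3 cm above the soil, a level kept for the whole test. Plants stay in the greenhouse 13 days before visual comparison with controls.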

[15] = test system: sedge, umbrella (small-flower umbrella sedge, Cyperus difformis); assay: as above; details: 250 g ai/ha, Flood, applied to paddy water, evaluated after 13 days
Procedure, shortened: as §2

[16] = test system: barnyardgrass (Echinochloa crusgalli); assay: as above; details: 250 g ai/ha, Flood, applied to paddy water, evaluated after 13 days
Procedure, shortened: as §2

[17] = test system: ducksalad (Heteranthera limosa); assay: as above; details: 250 g ai/ha, Flood, applied to paddy water, evaluated after 13 days
Procedure, shortened: as §2

[18] = test system: green foxtail (Setaria viridis); assay: Test A preemergence soil spray, visual injury rating 0-100; details: 10 days, 0 = no effect, 100 = complete control
Procedure, shortened: as §1

[19] = test system: barnyardgrass (Echinochloa crus-galli); assay: as above; details: 10 days, 0 = no effect, 100 = complete control
Procedure, shortened: as §1

[20] = test system: oat, wild (wild oat, Avena fatua); assay: as above; details: 10 days, 0 = no effect, 100 = complete control
Procedure, shortened: as §1

[21] = test system: wheat (Triticum aestivum); assay: as above; details: 10 days, 0 = no effect, 100 = complete control
Procedure, shortened: as §1

[22] = test system: ryegrass, Italian (italian ryegrass, Lolium multiflorum); assay: as above; details: 10 days, 0 = no effect, 100 = complete control
Procedure, shortened: as §1

[23] = test system: ragweed (common ragweed, Ambrosia artemisiifolia); assay: as above; details: 10 days, 0 = no effect, 100 = complete control
Procedure, shortened: as §1

[24] = test system: corn (Zea mays); assay: as above; details: 10 days, 0 = no effect, 100 = complete control
Procedure, shortened: as §1

[25] = test system: soybean (Glycine max); assay: as above; details: 10 days, 0 = no effect, 100 = complete control
Procedure, shortened: as §1

[26] = test system: kochia (Bassia scoparia); assay: as above; details: 10 days, 0 = no effect, 100 = complete control
Procedure, shortened: as §1

[27] = test system: blackgrass (Alopecurus myosuroides); assay: as above; details: 10 days, 0 = no effect, 100 = complete control
Procedure, shortened: as §1

[28] = test system: palmer (palmer amaranth, palmer pigweed, Amaranthus palmeri); assay: as above; details: 10 days, 0 = no effect, 100 = complete control
Procedure, shortened: as §1

[29] = 31 g ai/ha, postemergence, 0 = no effect, 100 = complete control
[30] = Postemergence, 125 g ai/ha, 0 is no effect, 100 is complete control

## CC(C)COC(=O)C1=CCC(NC(=O)C2(C)CN(c3cc(F)cc(F)c3)C(=O)O2)C1 (stereo not shown) [Compound 16]
[1]; [29]
  Foxtail, Green plant response rating (0-100): 90
[1]; [30]
  Foxtail, Green plant response rating (0 to 100 scale): 90
[2]; [29]
  Barnyardgrass plant response rating (0-100): 100
[2]; [30]
  Barnyardgrass plant response rating (0 to 100 scale): 100
[3]; [29]
  Oat, Wild plant response rating (0-100): 60
[3]; [30]
  Oat, Wild plant response rating (0 to 100 scale): 90
[4]; [29]
  Horseweed plant response rating (0-100): 0
[4]; [30]
  Horseweed plant response rating (0 to 100 scale): 20
[5]; [29]
  Wheat plant response rating (0-100): 80
[5]; [30]
  Wheat plant response rating (0 to 100 scale): 90
[6]; [29]
  Ryegrass, Italian plant response rating (0-100): 70
[6]; [30]
  Ryegrass, Italian plant response rating (0 to 100 scale): 90
[7]; [29]
  Ragweed plant response rating (0-100): 40
[7]; [30]
  Ragweed plant response rating (0 to 100 scale): 50
[8]; [29]
  Corn plant response rating (0-100): 90
[8]; [30]
  Corn plant response rating (0 to 100 scale): 100
[9]; [29]
  Soybean plant response rating (0-100): 60
[9]; [30]
  Soybean plant response rating (0 to 100 scale): 60
[10]; [29]
  Galium plant response rating (0-100): 90
[10]; [30]
  Galium plant response rating (0 to 100 scale): 90
[11]; [29]
  Kochia plant response rating (0-100): 70
[11]; [30]
  Kochia plant response rating (0 to 100 scale): 70
[12]; [29]
  Blackgrass plant response rating (0-100): 90
[12]; [30]
  Blackgrass plant response rating (0 to 100 scale): 100
[13]; [29]
  Amaranth, Palmer plant response rating (0-100): 20
[13]; [30]
  Amaranth, Palmer / Pigweed, Palmer plant response rating (0 to 100 scale): 70
[14]
  Plant response rating, Rice (0 to 100 scale, 0 is no effect and 100 is complete control): 65
[15]
  Plant response rating, Sedge, Umbrella (0 to 100 scale, 0 is no effect and 100 is complete control): 65
[16]
  Plant response rating, Barnyardgrass (0 to 100 scale, 0 is no effect and 100 is complete control): 65
[17]
  Plant response rating, Ducksalad (0 to 100 scale, 0 is no effect and 100 is complete control): 70
[18]; 31 g ai/ha
  Foxtail, Green plant response rating (0-100): 0
[18]; 125 g ai/ha
  Foxtail, Green plant response rating (0 to 100 scale): 100
[19]; 31 g ai/ha
  Barnyardgrass plant response rating (0-100): 0
[19]; 125 g ai/ha
  Barnyardgrass plant response rating (0 to 100 scale): 90
[20]; 31 g ai/ha
  Oat, Wild plant response rating (0-100): 0
[20]; 125 g ai/ha
  Oat, Wild plant response rating (0 to 100 scale): 50
[21]; 31 g ai/ha
  Wheat plant response rating (0-100): 50
[21]; 125 g ai/ha
  Wheat plant response rating (0 to 100 scale): 80
[22]; 31 g ai/ha
  Ryegrass, Italian plant response rating (0-100): 40
[22]; 125 g ai/ha
  Ryegrass, Italian plant response rating (0 to 100 scale): 90
[23]; 31 g ai/ha
  Ragweed plant response rating (0-100): 0
[23]; 125 g ai/ha
  Ragweed plant response rating (0 to 100 scale): 20
[24]; 31 g ai/ha
  Corn plant response rating (0-100): 20
[24]; 125 g ai/ha
  Corn plant response rating (0 to 100 scale): 70
[25]; 31 g ai/ha
  Soybean plant response rating (0-100): 0
[25]; 125 g ai/ha
  Soybean plant response rating (0 to 100 scale): 0
[26]; 31 g ai/ha
  Kochia plant response rating (0-100): 0
[26]; 125 g ai/ha
  Kochia plant response rating (0 to 100 scale): 40
[27]; 31 g ai/ha
  Blackgrass plant response rating (0-100): 0
[27]; 125 g ai/ha
  Blackgrass plant response rating (0 to 100 scale): 40
[28]; 31 g ai/ha
  Amaranth, Palmer plant response rating (0-100): 0
[28]; 125 g ai/ha
  Amaranth, Palmer plant response rating (0 to 100 scale): 80

Source: patent US20260285850A1, “SUBSTITUTED OXAZOLIDINONES AND IMIDAZOLINONES AS HERBICIDES” (FMC CORPORATION, priority 2023, published 2026)
